# Results from patent US20230276831A1, “Food/Beverage Article” (Kikkoman Corporation, priority 2020, published 2023).
# Test system: Lactobacillus rennini (DSM 20253)
# Assay: Antimicrobial action of licoricidin in soy sauce at various pH (Test Example 5)
# Format: cell-based
# Parameters: key: A: The bacterial count decreases to less than 10% of the bacterial count of the control group.; B: The bacterial count decreases to 10% or more and less than 50% of the bacterial count of the control group.; C: The bacterial count decreases to 50% or more and less than 100% of the bacterial count of control group.; D: The bacterial count is the same as the bacterial count of the control group
# Conditions: salt 4% (w/v)
# Method: Commercially available whole soybean soy sauce (produced by Kikkoman Corporation) was electrodialyzed and then concentrated under reduced pressure to obtain soy sauce at a salt concentration of 0% (w/v) and an alcohol concentration of 0% (v/v). Then, salt and/or alcohol was added to the above-mentioned obtained soy sauce, and hydrochloric acid or an aqueous sodium hydroxide solution was then added to adjust the pH to a desired pH. Germfree purified water was added, and the mixture was then heat-treated to produce soy sauce at the salt concentration, the alcohol concentration, and the pH shown in the following Table 17.
# Licoricidin (produced by ChemFaces) was added to each of the obtained soy sauces to concentrations of 1 ppm, 5 ppm, 10 ppm, 25 ppm, and 50 ppm. Lactic acid bacteria (Lactobacillus rennini (DSM 20253)) were then added to 10^6 to 10^7 cells/mL and cultured at 30° C. for 7 days. After the culture, the number of lactic acid bacteria was measured using the GAM agar medium “Nissui”. Soy sauce to which licoricidin was not added was used as a control group, and the antimicrobial activity was evaluated in comparison with the number of lactic acid bacteria in the control group. The evaluation was performed using the same criterion as in Test Example 4.
structure (smiles),measurement,setting,value
"COc1c(CC=C(C)C)c(O)cc2c1C[C@H](c1ccc(O)c(CC=C(C)C)c1O)CO2 [Licoricidin, 4-[(R)-7-hydroxy-5-methoxy-6-(3-methyl-2-butenyl)chroman-3-yl]-2-(3-methyl-2-butenyl)-1,3-benzenediol]",Antimicrobial activity,"pH 4.2, alcohol 0% (v/v), licoricidin 1 ppm",B (The bacterial count decreases to 10% or more and less than 50% of the bacterial count of the control group.)
same,Antimicrobial activity,"pH 4.2, alcohol 0% (v/v), licoricidin 5 ppm",A (The bacterial count decreases to less than 10% of the bacterial count of the control group.)
same,Antimicrobial activity,"pH 4.2, alcohol 0% (v/v), licoricidin 10 ppm",A (The bacterial count decreases to less than 10% of the bacterial count of the control group.)
same,Antimicrobial activity,"pH 4.2, alcohol 0% (v/v), licoricidin 25 ppm",A (The bacterial count decreases to less than 10% of the bacterial count of the control group.)
same,Antimicrobial activity,"pH 4.2, alcohol 0% (v/v), licoricidin 50 ppm",A (The bacterial count decreases to less than 10% of the bacterial count of the control group.)
same,Antimicrobial activity,"pH 4.2, alcohol 5% (v/v), licoricidin 1 ppm",C (The bacterial count decreases to 50% or more and less than 100% of the bacterial count of control group.)
same,Antimicrobial activity,"pH 4.2, alcohol 5% (v/v), licoricidin 5 ppm",A (The bacterial count decreases to less than 10% of the bacterial count of the control group.)
same,Antimicrobial activity,"pH 4.2, alcohol 5% (v/v), licoricidin 10 ppm",A (The bacterial count decreases to less than 10% of the bacterial count of the control group.)
same,Antimicrobial activity,"pH 4.2, alcohol 5% (v/v), licoricidin 25 ppm",A (The bacterial count decreases to less than 10% of the bacterial count of the control group.)
same,Antimicrobial activity,"pH 4.2, alcohol 5% (v/v), licoricidin 50 ppm",A (The bacterial count decreases to less than 10% of the bacterial count of the control group.)
same,Antimicrobial activity,"pH 4.6, alcohol 0% (v/v), licoricidin 1 ppm",D
same,Antimicrobial activity,"pH 4.6, alcohol 0% (v/v), licoricidin 5 ppm",D
same,Antimicrobial activity,"pH 4.6, alcohol 0% (v/v), licoricidin 10 ppm",A (The bacterial count decreases to less than 10% of the bacterial count of the control group.)
same,Antimicrobial activity,"pH 4.6, alcohol 0% (v/v), licoricidin 25 ppm",A (The bacterial count decreases to less than 10% of the bacterial count of the control group.)
same,Antimicrobial activity,"pH 4.6, alcohol 0% (v/v), licoricidin 50 ppm",A (The bacterial count decreases to less than 10% of the bacterial count of the control group.)
same,Antimicrobial activity,"pH 4.6, alcohol 5% (v/v), licoricidin 1 ppm",B (The bacterial count decreases to 10% or more and less than 50% of the bacterial count of the control group.)
same,Antimicrobial activity,"pH 4.6, alcohol 5% (v/v), licoricidin 5 ppm",A (The bacterial count decreases to less than 10% of the bacterial count of the control group.)
same,Antimicrobial activity,"pH 4.6, alcohol 5% (v/v), licoricidin 10 ppm",A (The bacterial count decreases to less than 10% of the bacterial count of the control group.)
same,Antimicrobial activity,"pH 4.6, alcohol 5% (v/v), licoricidin 25 ppm",A (The bacterial count decreases to less than 10% of the bacterial count of the control group.)
same,Antimicrobial activity,"pH 4.6, alcohol 5% (v/v), licoricidin 50 ppm",A (The bacterial count decreases to less than 10% of the bacterial count of the control group.)
same,Antimicrobial activity,"pH 5.0, alcohol 0% (v/v), licoricidin 1 ppm",B (The bacterial count decreases to 10% or more and less than 50% of the bacterial count of the control group.)
same,Antimicrobial activity,"pH 5.0, alcohol 0% (v/v), licoricidin 5 ppm",A (The bacterial count decreases to less than 10% of the bacterial count of the control group.)
same,Antimicrobial activity,"pH 5.0, alcohol 0% (v/v), licoricidin 10 ppm",A (The bacterial count decreases to less than 10% of the bacterial count of the control group.)
same,Antimicrobial activity,"pH 5.0, alcohol 0% (v/v), licoricidin 25 ppm",A (The bacterial count decreases to less than 10% of the bacterial count of the control group.)
same,Antimicrobial activity,"pH 5.0, alcohol 0% (v/v), licoricidin 50 ppm",A (The bacterial count decreases to less than 10% of the bacterial count of the control group.)
same,Antimicrobial activity,"pH 5.0, alcohol 5% (v/v), licoricidin 1 ppm",C (The bacterial count decreases to 50% or more and less than 100% of the bacterial count of control group.)
same,Antimicrobial activity,"pH 5.0, alcohol 5% (v/v), licoricidin 5 ppm",A (The bacterial count decreases to less than 10% of the bacterial count of the control group.)
same,Antimicrobial activity,"pH 5.0, alcohol 5% (v/v), licoricidin 10 ppm",A (The bacterial count decreases to less than 10% of the bacterial count of the control group.)
same,Antimicrobial activity,"pH 5.0, alcohol 5% (v/v), licoricidin 25 ppm",A (The bacterial count decreases to less than 10% of the bacterial count of the control group.)
same,Antimicrobial activity,"pH 5.0, alcohol 5% (v/v), licoricidin 50 ppm",A (The bacterial count decreases to less than 10% of the bacterial count of the control group.)
same,Antimicrobial activity,"pH 5.4, alcohol 0% (v/v), licoricidin 1 ppm",B (The bacterial count decreases to 10% or more and less than 50% of the bacterial count of the control group.)
same,Antimicrobial activity,"pH 5.4, alcohol 0% (v/v), licoricidin 5 ppm",A (The bacterial count decreases to less than 10% of the bacterial count of the control group.)
same,Antimicrobial activity,"pH 5.4, alcohol 0% (v/v), licoricidin 10 ppm",A (The bacterial count decreases to less than 10% of the bacterial count of the control group.)
same,Antimicrobial activity,"pH 5.4, alcohol 0% (v/v), licoricidin 25 ppm",A (The bacterial count decreases to less than 10% of the bacterial count of the control group.)
same,Antimicrobial activity,"pH 5.4, alcohol 0% (v/v), licoricidin 50 ppm",A (The bacterial count decreases to less than 10% of the bacterial count of the control group.)
same,Antimicrobial activity,"pH 5.4, alcohol 5% (v/v), licoricidin 1 ppm",C (The bacterial count decreases to 50% or more and less than 100% of the bacterial count of control group.)
same,Antimicrobial activity,"pH 5.4, alcohol 5% (v/v), licoricidin 5 ppm",A (The bacterial count decreases to less than 10% of the bacterial count of the control group.)
same,Antimicrobial activity,"pH 5.4, alcohol 5% (v/v), licoricidin 10 ppm",A (The bacterial count decreases to less than 10% of the bacterial count of the control group.)
same,Antimicrobial activity,"pH 5.4, alcohol 5% (v/v), licoricidin 25 ppm",A (The bacterial count decreases to less than 10% of the bacterial count of the control group.)
same,Antimicrobial activity,"pH 5.4, alcohol 5% (v/v), licoricidin 50 ppm",A (The bacterial count decreases to less than 10% of the bacterial count of the control group.)
same,Antimicrobial activity,"pH 5.8, alcohol 0% (v/v), licoricidin 1 ppm",D
same,Antimicrobial activity,"pH 5.8, alcohol 0% (v/v), licoricidin 5 ppm",A (The bacterial count decreases to less than 10% of the bacterial count of the control group.)
same,Antimicrobial activity,"pH 5.8, alcohol 0% (v/v), licoricidin 10 ppm",A (The bacterial count decreases to less than 10% of the bacterial count of the control group.)
same,Antimicrobial activity,"pH 5.8, alcohol 0% (v/v), licoricidin 25 ppm",A (The bacterial count decreases to less than 10% of the bacterial count of the control group.)
same,Antimicrobial activity,"pH 5.8, alcohol 0% (v/v), licoricidin 50 ppm",A (The bacterial count decreases to less than 10% of the bacterial count of the control group.)
same,Antimicrobial activity,"pH 5.8, alcohol 5% (v/v), licoricidin 1 ppm",D
same,Antimicrobial activity,"pH 5.8, alcohol 5% (v/v), licoricidin 5 ppm",D
same,Antimicrobial activity,"pH 5.8, alcohol 5% (v/v), licoricidin 10 ppm",A (The bacterial count decreases to less than 10% of the bacterial count of the control group.)
same,Antimicrobial activity,"pH 5.8, alcohol 5% (v/v), licoricidin 25 ppm",A (The bacterial count decreases to less than 10% of the bacterial count of the control group.)
same,Antimicrobial activity,"pH 5.8, alcohol 5% (v/v), licoricidin 50 ppm",A (The bacterial count decreases to less than 10% of the bacterial count of the control group.)
